Laboratory results from publication PMC11251039, “Harnessing cholesterol uptake of malaria parasites for therapeutic applications” (EMBO Molecular Medicine, 2024).
Where “and” joins values, the source holds several entries; their conditions need not be identical. Equal values may be shown once.

Tested on: P. falciparum CAM3.IIREV ring stages (0–3 h post invasion)
Assay: Plasmodium falciparum ring stage survival assay, susceptible revertant strain
Format: cell-based
Method: Following tight synchronisation using sorbitol and Percoll® floatation, ring stage CAM3.II and CAM3.IIREV parasites (0–3 h post invasion) at 1% parasitaemia and 2% haematocrit were incubated with 700 nM of compounds or solvent-only controls for exactly 6 h, before removing the drug, thoroughly washing in RPMI with HEPES, and returning to culture conditions for a further 66 h. Some cells were treated with 700 nM artesunate for 72 h as a no-growth control. DNA replication (indicating growth) was measured at the specified time using SYBR Safe DNA Stain. Microscope slide smears of each condition were stained with 10% v/v Giemsa and examined under a light microscope (×1000 magnification); with ‘viable’ (morphologically normal) and ‘non-viable’ (morphologically aberrant; vacuolated or pyknotic) parasites distinguished according to standard protocol (Witkowski et al, [2013]). Images were captured using a Leica ICC50 camera, with a resolution of 76 nm per pixel, and cropped from larger images using Fiji ImageJ.
Appendix Fraser/Curtis et al.
Cells were detached from a flask using 0.25% Trypsin with 0.2 g/L EDTA (Sigma T4049) and washed with culture media containing no phenol red. Cells were incubated with a serial dilution of each compound, or media/DMSO alone. The protein synthesis inhibitor cycloheximide (Sigma 01810) at 10 µg/mL was used as a positive control to determine background absorbance. 5,000 cells were seeded in each well. After 96 hours, 0.45 mg/mL methylthiazolyldiphenyl-tetrazolium bromide (MTT; Sigma M2128) was added and incubated for a further two hours, before mixing 1.1:1 with 10% w/v sodium dodecyl sulfate (SDS) to solubilise crystals and freezing the plate at -18 °C to stop the assay. Plates were defrosted at room temperature and absorbance was read at 570 nm in an Infinite M1000 pro plate reader […]
Plasmodium falciparum Ring Stage Survival Assay
Ring stage survival assays were conducted according to standard protocols with some modifications (27, 28). CAM3.11 and CAM3.11REV parasites were sorbitol synchronised twice, 12 hours apart, and then incubated for a further 30 hours until the majority of the parasites were mature schizonts (with clearly separated nuclei). Pelleted RBCs were incubated at 37 °C with heparinised RPMI for 15 minutes, and then centrifuged over 75% Percoll® in PBS for 15 minutes at 1,000 g. Mature schizonts were collected, washed with warm RPMI, and cultured for exactly three hours with fresh uRBCs and culture media. After 3 hours, the cultures were sorbitol synchronised and incubated in duplicate with 700 nM of artesunate, PAYb076a, GGA5, HJB8a53, a DMSO solvent-only control or media alone for exactly six hours, before removing the drug, washing in RPMI, and returning to culture conditions. Samples of each cell suspension were transferred to a -18 °C freezer at the start of the assay (time = 0) or treated for the entire 72 hours with 700 nM artesunate to determine background fluorescence under no-growth conditions. After a further 66 hours of incubation (totalling 72 hours), cells were […]
resuspended, and a sample from each well was transferred to a fresh plate and frozen at -18 °C.
Microscope slide smears were made using the remaining cells and stained with 10% v/v Giemsa. Plates were thawed and SYBR Safe DNA Gel Stain (final concentration 1/10,000) diluted in lysis buffer (as above) was added for DNA detection at 490 nm excitation / 520 nm emission on a FLUOstar Optima fluorescence plate reader. Parasite proliferation and viability were also assessed using Giemsa-stained smears examined under a light microscope (1,000× magnification); with ‘viable’ and ‘non-viable’ (vacuolated or pyknotic) parasites distinguished according to standard protocol. Images were captured using a Leica ICC50 camera, with a resolution of 76 nm per pixel.
Growth inhibition data were normalised by subtracting background fluorescence, […]

In the case of `CC(C)OC(=O)CCC(=O)O[C@H]1CC[C@H]2[C@@H]3CC=C4C[C@@H](O)CC[C@]4(C)[C@H]3CC[C@]12C` [C-17-link], the “Ring stage survival, growth” value (700 nM, 6 h treatment, 66 h further growth, CAM3.IIREV susceptible) is reported as “did not significantly impact the growth” and the “Ring stage survival, individual data points (Figure 4C)” value (CAM3.11REV, replicate experiments, listed as HJB8a53) is reported as 98.68 and 105.5 and 54.94 and 92.61.
